Measurements reported in US12419874B2, “GLP-1R agonist compound and use thereof” (Chongqing Pharmaceutical Research Institute Co., Ltd., priority 2024, dated 2025).

Key:
[1] = system: GLP-1R humanized C57BL/6N mice fed with high-fat diets; experiment: In vivo efficacy on body weight and food intake in high-fat diet hGLP-1R mice; settings: for Cumulative Food Intake on Day 27 / Change Rate of Body Weight on Day 27: gavage once daily; for Change Rate of Body Weight on Day 27: corrected by Vehicle
Experimental: The effects of long-term administration of the compounds of the present disclosure on the weight and food intake of GLP-1R humanized C57BL/6N mice fed with high-fat diets were evaluated.
• five-week-old male C57BL/6N hGLP-1R mice; • 60% high-fat diet (HFD); electronic balance. 3. Experimental Method • (1) C57BL/6N_hGLP-1R mice were fed with 60% high-fat diets until the end of the experiment. • (2) At the 10th week of HFD feeding, the model mice were randomly divided into groups according to their body weight, with 6 to 7 mice in each group. Subsequently, the single-caged mice were adaptively fed for 2 weeks. The first group was Vehicle group (Vehicle: 10% PEG 400+10% propylene glycol+80% glycine-NaOH buffer), and administered with the Vehicle; the remaining groups were drug treatment groups; the duration of administration was 27 days. • (3) The day of drug administration was defined as Day 0. At each administration, the animals were weighed and the data were recorded, and the mice were treated depending upon their body weight. • (4) The food intake of the mice in each group was measured once a day from Day 0 of the experiment. Specifically, the diets were changed after each weighing and administration, and the addition amounts and residual amounts thereof were recorded. 4. Experimental Data Processing and Statistical Analysis
The rates of change in the body weight of mice after administration were summarized and statistically analyzed.
The rate of change in the body weight corrected by Vehicle was calculated: (((BWt/BW0)−1)−(BWt-vec-avg))*100%;
BWt represented the body weight of mouse in drug treatment group on Day t; BW0 represented the body weight of mouse in drug treatment group on Day 0; BWt-vec-avg represented the average body weight of mice in Vehicle group on Day t for drug treatment groups.
The cumulative food intake of mice after drug administration was summarized and statistically analyzed.
Cumulative food intake was calculated: addition amounts (g)—residual amounts (g).
The cumulative food intake was the sum of daily food intake of each animal during the period of administration.

[2] = biological target: T1, GLP-1R (Homo sapiens, UniProt P43220); experiment: GLP-1R agonistic activity by One-Lite luciferase assay in HEK293-GLP-1R-luc cells (Example 59); type: cell-based; settings: 6 h incubation, read-out: cAMP EC50
T1 sequence (P43220 24-463): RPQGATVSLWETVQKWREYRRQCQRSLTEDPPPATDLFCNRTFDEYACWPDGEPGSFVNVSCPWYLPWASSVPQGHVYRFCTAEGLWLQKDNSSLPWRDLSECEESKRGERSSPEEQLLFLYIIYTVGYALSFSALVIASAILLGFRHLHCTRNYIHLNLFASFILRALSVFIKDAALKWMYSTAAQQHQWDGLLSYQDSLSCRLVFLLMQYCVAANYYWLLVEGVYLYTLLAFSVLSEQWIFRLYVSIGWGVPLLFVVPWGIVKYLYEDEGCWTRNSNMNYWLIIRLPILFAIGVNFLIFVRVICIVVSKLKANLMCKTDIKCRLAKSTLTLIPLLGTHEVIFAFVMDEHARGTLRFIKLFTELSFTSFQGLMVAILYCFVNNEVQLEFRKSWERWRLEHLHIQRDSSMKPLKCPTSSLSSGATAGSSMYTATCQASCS
Procedure, shortened: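 HEK293 cells stably expressing GLP-1R with a cAMP-responsive luciferase reporter, 30000 cells/well, exposed to compound for 6 h at 37 °C. Chemiluminescence read after 3 min with One-Lite substrate at room temperature; % activity normalised to positive and vehicle controls, EC50 from a four-parameter dose-response fit.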

[3] = In vivo pharmacokinetics in Macaca fascicularis, intravenous
Experimental: A clear solution of “example compound 67 in WO2018056453” in 10% PEG/90% 100 mM glycine-NaOH and a clear solution of “Compound 1” in 10% PEG/90% 100 mM glycine-NaOH were prepared. The above solutions were injected into subcutaneous veins of the fore limbs of male Macaca fascicularis (n=2) at a dose of 0.12 mg/kg, respectively. At different time points (0.083, 0.25, 0.5, 1.0, 2.0, 4.0, 8.0, 24.0, and 36 h) after administration, blood samples were collected from veins into anticoagulant tubes containing EDTA-K2, and centrifuged to separate plasma.
The drug concentrations in the plasma were determined by the LC-MS/MS method, and the pharmacokinetic software (e.g., winNonlin Version 6.3) was used to calculate the related pharmacokinetic parameters as shown in Table 10 by using the log-linear trapezoidal rule of the non-compartmental analysis.

[4] = biological target: T1, GLP-1R; experiment: GLP-1R agonistic activity by cAMP detection kit in HEK293-GLP-1R-luc cells (Example 58); type: cell-based; settings: 30 min incubation
Experimental: The agonistic activities of the compounds of the present disclosure on GLP-1R were evaluated by detecting the generation of cAMP.
• (1) Cell line: HEK293-GLP-1R-luc Stable Cell Line (Cobioer, CBP71117); • (2) Culture medium: DMEM+10% FBS (Gibco); • (3) Kit: cAMP detection kit (PerkinElmer). 2. Experimental Procedures • (1) HEK293-GLP1R cells were inoculated in a 384-well plate at a density of 2000 cells per well; • (2) 4× working solution of each compound was formulated; • (3) 5 μL of 4× working solution of each compound was added to corresponding well and incubated at 37° C. for 30 min; • (4) 10 μL of Eu-cAMP tracer diluted with Lysis Buffer (1/50) was added to each well; • (5) 10 μL of Ulight-anti-cAMP diluted with Lysis Buffer (1/150) was added to each well; • (6) The plate was incubated at room temperature for 1 h; • (7) The plate was read by a multimode microplate reader (excitation wavelength: 320 nm; emission wavelength: 665 nm and 620 nm). 3. Data Analysis • (1) % Activity was calculated by the following formula: % Activity=100−(Signalcmpd−SignalAve-PC)/(SignalAve-VC−SignalAve-PC)×100 • (2) The dose-response curve was plotted to calculate EC50: Y=Bottom+(Top−Bottom)/(1+10^(Log EC50−X)*HillSlope)) • X: log of agonist concentration; Y: Activity. 4. Experimental Results

[5] = In vivo pharmacokinetics in rats, oral; design: species or system SD rats; settings: for AUC(0-t) / Cmax / half-life: rat, plasma, SD rats, PO; for maximum plasma concentration Cmax compared with the control compound / oral exposure AUC compared with the control compound: rats, oral, versus example compound 67 in WO2018056453, in words
Experimental: The compounds of the present disclosure were formulated with […]+90% 100 mM glycine-64 mM NaOH, and orally administered to fasted SD rats at a dose of 1 mg/kg or 5 mg/kg, respectively. At different time points (0.25, 0.5, 1.0, 2.0, 4.0, 5.0, 6.0, 7.0, 8.0, and 24 h) after administration, about 50 μL of blood samples were collected from veins into anticoagulant tubes containing EDTA-K2, and centrifuged to separate plasma. The plasma concentrations of the compounds were determined by LC-MS/MS. WinNonlin was used to calculate the pharmacokinetic parameters by using the non-compartmental analysis, and the experimental results were listed in Table 9.

[6] = Macaca fascicularis, versus example compound 67 in WO2018056453, in words
[7] = cynomolgus monkey, plasma, male Macaca fascicularis, 0.12 mg/kg

Cc1cc(-n2nc3c(c2-n2ccn(-c4ccc5c(cnn5C)c4F)c2=O)[C@H](C)N(C(=O)c2cc4cc([C@H]5CCOC(C)(C)C5)ccc4n2[C@@]2(c4noc(=O)[nH]4)C[C@@H]2C)CC32CC2)cc(C)c1F [Compound 1]
Cumulative Food Intake on Day 27 ([1]; 0.3 mpk): 73.91 ± 6.71 g
Change Rate of Body Weight on Day 27 ([1]; 0.3 mpk): −15.04 ± 1.90%
Cumulative Food Intake on Day 27 ([1]; 1.5 mpk): 70.01 ± 5.88 g
Change Rate of Body Weight on Day 27 ([1]; 1.5 mpk): −18.46 ± 1.98%
Cumulative Food Intake on Day 27 ([1]; 3.0 mpk): 62.75 ± 6.97 g
Change Rate of Body Weight on Day 27 ([1]; 3.0 mpk): −23.78 ± 1.61%
reduction of the body weight and inhibition of the food intake ([1]; long-term administration, 0.3 to 3 mpk, in words): excellent effects
EC50 [2]: ≤ 20 nM
clearance (Cl) compared with the control compound [3, 6]: lower
exposure (AUC) compared with the control compound [3, 6]: higher
half-life (T1/2) compared with the control compound [3, 6]: longer
AUC(0-t) [3, 7]: 754 ng·h/mL
clearance [3, 7]: 2.63 mL/min/kg
half-life [3, 7]: 6.08 h
EC50 [4]: ≤ 0.1 nM
AUC(0-t) ([5]; 1 mg/kg): 2300 ng·h/mL
Cmax ([5]; 1 mg/kg): 213 ng/mL
half-life ([5]; 1 mg/kg): 10 h
AUC(0-t) ([5]; 5 mg/kg): 11800 ng·h/mL
Cmax ([5]; 5 mg/kg): 1080 ng/mL
half-life ([5]; 5 mg/kg): 12.9 h
maximum plasma concentration Cmax compared with the control compound [5]: higher
oral exposure AUC compared with the control compound [5]: higher

Cc1cc(-n2nc3c(c2-n2ccn(-c4ccc5c(cnn5C)c4F)c2=O)[C@H](C)N(C(=O)c2cc4cc([C@H]5CCOC(C)(C)C5)ccc4n2[C@@]2(c4noc(=O)[nH]4)C[C@@H]2C)CC32CCNCC2)cc(C)c1F [Compound 57]
EC50 [2]: ≤ 20 nM
EC50 [4]: ≤ 0.1 nM

Cc1cc(-n2nc3c(c2-n2ccn(-c4ccc5c(cnn5C)c4F)c2=O)[C@H](C)N(C(=O)c2cc4cc([C@H]5CCOC(C)(C)C5)ccc4n2[C@@]2(c4noc(=O)[nH]4)C[C@@H]2C)CC32CC2F)cc(C)c1F (stereo partly shown) [Compound 228]
EC50 [2]: ≤ 20 nM
AUC(0-t) ([5]; 1 mg/kg): 2400 ng·h/mL
Cmax ([5]; 1 mg/kg): 216 ng/mL
half-life ([5]; 1 mg/kg): 13 h
maximum plasma concentration Cmax compared with the control compound [5]: higher
oral exposure AUC compared with the control compound [5]: higher

Cc1cc(-n2nc3c(c2-n2ccn(-c4ccc5c(cnn5C)c4F)c2=O)[C@H](C)N(C(=O)c2cc4cc([C@H]5CCOC(C)(C)C5)ccc4n2[C@@]2(c4noc(=O)[nH]4)C[C@@H]2C)CC32CCN(C)CC2)cc(C)c1F [Compound 59]
EC50 [2]: ≤ 20 nM
EC50 [4]: ≤ 0.1 nM

Cc1cc(-n2nc3c(c2-n2ccn(-c4ccc5c(cnn5C)c4F)c2=O)[C@H](C)N(C(=O)c2cc4cc([C@H]5CCOC(C)(C)C5)ccc4n2[C@@]2(c4noc(=O)[nH]4)C[C@@H]2C)CC32C[C@H]2C)cc(C)c1F (stereo partly shown) [Compound 226]
EC50 [2]: ≤ 20 nM
AUC(0-t) ([5]; 1 mg/kg): 1480 ng·h/mL
Cmax ([5]; 1 mg/kg): 160 ng/mL
half-life ([5]; 1 mg/kg): 9.3 h

Cc1cc(-n2nc3c(c2-n2ccn(-c4ccc5c(cnn5C)c4F)c2=O)[C@H](C)N(C(=O)c2cc4cc([C@H]5CCOC(C)(C)C5)ccc4n2[C@@]2(c4noc(=O)[nH]4)C[C@@H]2C)CC32CCOCC2)cc(C)c1F [Compound 43]
EC50 [2]: ≤ 20 nM
EC50 [4]: ≤ 0.1 nM

Cc1cc(-n2nc3c(c2-n2ccn(-c4ccc5c(cnn5C)c4F)c2=O)[C@H](C)N(C(=O)c2cc4cc([C@H]5CCOC(C)(C)C5)ccc4n2[C@@]2(c4noc(=O)[nH]4)C[C@@H]2C)CC32CC(F)(F)C2)cc(C)c1F [Compound 180]
EC50 [2]: ≤ 20 nM
AUC(0-t) ([5]; 1 mg/kg): 1120 ng·h/mL
Cmax ([5]; 1 mg/kg): 129 ng/mL
half-life ([5]; 1 mg/kg): 6.4 h

C=C1CC2(C1)CN(C(=O)c1cc3cc([C@H]4CCOC(C)(C)C4)ccc3n1[C@@]1(c3noc(=O)[nH]3)C[C@@H]1C)[C@@H](C)c1c2nn(-c2cc(C)c(F)c(C)c2)c1-n1ccn(-c2ccc3c(cnn3C)c2F)c1=O [Compound 218]
EC50 [2]: ≤ 20 nM
AUC(0-t) ([5]; 1 mg/kg): 990 ng·h/mL
Cmax ([5]; 1 mg/kg): 110 ng/mL
half-life ([5]; 1 mg/kg): 11.6 h

Cc1cc(-n2nc3c(c2-n2ccn(-c4ccc5c(cnn5C)c4F)c2=O)[C@H](C)N(C(=O)c2cc4cc([C@H]5CCOC(C)(C)C5)ccc4n2[C@@]2(c4noc(=O)[nH]4)C[C@@H]2C)CC32CCN(C=O)C2)cc(C)c1F (stereo partly shown) [Compound 83]
EC50 [2]: ≤ 20 nM

Cc1cc(-n2nc3c(c2-n2ccn(-c4ccc5c(cnn5C)c4F)c2=O)[C@H](C)N(C(=O)c2cc4cc([C@H]5CCOC(C)(C)C5)ccc4n2[C@@]2(c4noc(=O)[nH]4)C[C@@H]2C)CC32CCN(C(=O)CN)CC2)cc(C)c1F [Compound 161]
EC50 [2]: ≤ 20 nM

Cc1cc(-n2nc3c(c2-n2ccn(-c4ccc5c(cnn5C)c4F)c2=O)[C@H](C)N(C(=O)c2cc4cc([C@H]5CCOC(C)(C)C5)ccc4n2[C@@]2(c4noc(=O)[nH]4)C[C@@H]2C)CC32CCC2)cc(C)c1F [Compound 23]
EC50 [2]: ≤ 20 nM

COC1CCC2(CC1)CN(C(=O)c1cc3cc([C@H]4CCOC(C)(C)C4)ccc3n1[C@@]1(c3noc(=O)[nH]3)C[C@@H]1C)[C@@H](C)c1c2nn(-c2cc(C)c(F)c(C)c2)c1-n1ccn(-c2ccc3c(cnn3C)c2F)c1=O (stereo partly shown) [Compound 202]
EC50 [2]: ≤ 20 nM

C[C@H]1c2c(nn(-c3ccc(F)c(C4CC4)c3)c2-n2ccn(-c3ccc4c(cnn4C)c3F)c2=O)C2(CC2)CN1C(=O)c1cc2cc([C@H]3CCOC(C)(C)C3)ccc2n1[C@@]1(c2noc(=O)[nH]2)C[C@@H]1C [Compound 171]
EC50 [2]: ≤ 20 nM
